Source: patent US9243037B2, “Gramicidin a mutants that function as antibiotics with improved solubility and reduced toxicity” (Trustees of Boston College, priority 2011, dated 2016)
Where two headings read alike, the source gives them in different places. Where a SMILES comes first, the peptide text is derived from it. [ ]: non-standard residue; d: D form. The star is where a group is joined. dLys(Me3) = C[N+](C)(C)CCCC[C@@H](N)C(=O)O; NHCH2CH2OH = OCCN*; For = O=C*

What was measured:
[1] = tested on: human red blood cells (hRBCs); assay: K+ leakage from hRBCs (flame atomic emission); assay type: cell-based
Protocol: The rest of supernatant (1.2 mL) from each sample prepared as described in the hemoglobin leakage assay was transferred into a new sterile eppendorf tube and subject to the K+ concentration measurement using a flame-atomic emission spectrometer (λem=766.5 nm, Perkin Elmer Atomic absorption Spectrometer 3100, acetylene/air flame). Three readings were taken for each sample and averaged as final results. The fraction of K+ leakage from hRBCs was calculated as percentage K+ leaked=100·(I776.5,peptide−I776.5,DMSO)/(I776.5,complete lysis−I776.5,DMSO).

[2] = tested on: human red blood cells (hRBCs); assay: Haemoglobin release from human red blood cells; assay type: cell-based
Protocol: Fresh human red blood cells (hRBCs) were centrifuged at 3500 rpm and washed with PBS buffer until the supernatant was clear. The hRBCs were then resuspended and diluted to a final concentration of 1% (v/v) in PBS and used immediately. 15 μL of serial dilution (2-fold) of peptides in DMSO or DMSO alone as a negative control were added to 1.5 mL of hRBCs in PBS. The resulting mixture was gently shaken to mix well and incubated at 37° C. for 1 hr, followed by centrifugation at 3500 rpm for 10 min using tabletop centrifuge. Aliquots (50 μL) of the supernatant (in triplicates) were transferred into a sterile 96-well plate containing 50 μL of H2O in each well. Release of hemoglobin was monitored at 415 nm using a microtiter plate reader. Percentage hemolysis was calculated using percentage hemolysis=100·(A415, peptide-A415,DMSO)/(A415, complete hemolysis-A415, DMSO), where complete hemolysis is achieved by mixing hRBCs with 1% TritonX-100.

[3] = tested on: Bacillus subtilis (ATCC 663)
[4] = tested on: Staphylococcus aureus (ATCC 6538)
[5] = tested on: Streptococcus pyogenes (ATCC 19615)
physchem = assay type: physicochemical; settings: for solubility kinetic at 30 min: pH 7, aqueous with cosolvent or surfactant or cyclodextrin
Protocol: Peptide solubility in 10 mM HEPES buffer with 1% DMSO was measured by monitoring tryptophan absorbance. A concentrated (6.0-8.0 mM) peptide stock solution in DMSO was diluted 100 times (5 μL of the stock into 500 jtl of 10 mM HEPES buffer, pH 7.0). The mixture was sonicated for 30 mins and then subject to centrifugation (14,000 rpm, 10 mins) to remove possible precipitate. The supernatant (400 μL) was transferred to a quartz cuvette and the peptide concentration was determined by tryptophan absorbance at 280 nm (ε=22760 M−1 cm-1). The UV/Vis spectra of the supernatant can be seen in FIG. 1 and FIG. 5.

[6] = Peptide binding onto membranes (Trp fluorescence); settings: neutral POPC vesicles; in words
[7] = Trp absorbance @ 280 nm; 10 mM PBS, pH 7.0, 1% DMSO; values taken from ref; cited from earlier work
[8] = Peptide binding onto membranes (Trp fluorescence); settings: negatively charged POPC/POPG vesicles; in words

| Compound | Minimum Inhibition Concentration B. Subtilius ([3]; ATCC 663) [µM] | KC50 [1] | Toxicity KC50 [1] [µM] | Minimum Inhibition Concentration S. Aureus ([4]; ATCC 6538) [µM] | Minimum Inhibition Concentration S. Pyogenesis ([5]; ATCC 19615) [µM] | HC50 [2] | Toxicity HC50 ([2]; red cells of human) [µM] | solubility kinetic at 30 min (physchem) [µM] | haemoglobin leakage from hRBCs [2] | also measured |
| --- | --- | --- | --- | --- | --- | --- | --- | --- | --- | --- |
| CC(C)C[C@@H](NC(=O)[C@H](C)NC(=O)CNC(=O)[C@@H](NC=O)C(C)C)C(=O)N[C@@H](C)C(=O)N[C@@H](C(=O)N[C@H](C(=O)N[C@@H](C(=O)N[C@@H](Cc1c[nH]c2ccccc12)C(=O)N[C@H](CC(C)C)C(=O)N[C@@H](Cc1c[nH]c2ccccc12)C(=O)N[C@H](CCCC[N+](C)(C)C)C(=O)N[C@@H](Cc1c[nH]c2ccccc12)C(=O)N[C@H](CC(C)C)C(=O)N[C@@H](Cc1c[nH]c2ccccc12)C(=O)NCCO)C(C)C)C(C)C)C(C)C [12MeK] (For-VGA[dL]A[dV]V[dV]W[dL]W[dLys(Me3)]W[dL]W-NHCH2CH2OH) |  |  |  |  |  |  |  |  |  | KC50 ([1]; Table 8): 0.2; HC50 ([2]; Table 8): >10 |
| CC(C)C[C@@H](NC(=O)[C@H](C)NC(=O)CNC(=O)[C@@H](NC=O)C(C)C)C(=O)N[C@@H](C)C(=O)N[C@@H](C(=O)N[C@H](C(=O)N[C@@H](C(=O)N[C@@H](Cc1c[nH]c2ccccc12)C(=O)N[C@H](CCCC[N+](C)(C)C)C(=O)N[C@@H](Cc1c[nH]c2ccccc12)C(=O)N[C@H](CC(C)C)C(=O)N[C@@H](Cc1c[nH]c2ccccc12)C(=O)N[C@H](CC(C)C)C(=O)N[C@@H](Cc1c[nH]c2ccccc12)C(=O)NCCO)C(C)C)C(C)C)C(C)C [10M] (For-VGA[dL]A[dV]V[dV]W[dLys(Me3)]W[dL]W[dL]W-NHCH2CH2OH) | 2.5 | 0.04 | 0.04 | 2.5 | 0.15 | 19 | 19 | 4.3 |  |  |
| CC(C)C[C@@H](NC(=O)[C@H](C)NC(=O)CNC(=O)[C@@H](NC=O)C(C)C)C(=O)N[C@@H](C)C(=O)N[C@@H](C(=O)N[C@H](C(=O)N[C@@H](C(=O)N[C@@H](Cc1c[nH]c2ccccc12)C(=O)N[C@H](CCCC[N+](C)(C)C)C(=O)N[C@@H](Cc1c[nH]c2ccccc12)C(=O)N[C@H](CCCC[N+](C)(C)C)C(=O)N[C@@H](Cc1c[nH]c2ccccc12)C(=O)N[C@H](CCCC[N+](C)(C)C)C(=O)N[C@@H](Cc1c[nH]c2ccccc12)C(=O)NCCO)C(C)C)C(C)C)C(C)C [10, 12, 14M] (For-VGA[dL]A[dV]V[dV]W[dLys(Me3)]W[dLys(Me3)]W[dLys(Me3)]W-NHCH2CH2OH) |  | >95 | >95 |  |  | >95 | >95 | 55 | [c] HC50 is the peptide concentration required to cause 50% of haemoglobin leakage from human red blood cells compared to the lysis of same amount cells by 1% TritonX-100. No haemoglogin leakage was observed in the cases of 10, 14M, 10, 12M or 10, 12, 14M at the concentration range tested. |  |
| CC(C)C[C@@H](NC(=O)[C@H](C)NC(=O)CNC(=O)[C@@H](NC=O)C(C)C)C(=O)N[C@@H](C)C(=O)N[C@@H](C(=O)N[C@H](C(=O)N[C@@H](C(=O)N[C@@H](Cc1c[nH]c2ccccc12)C(=O)N[C@H](CC(C)C)C(=O)N[C@@H](Cc1c[nH]c2ccccc12)C(=O)N[C@H](CCCC[N+](C)(C)C)C(=O)N[C@@H](Cc1c[nH]c2ccccc12)C(=O)N[C@H](CCCC[N+](C)(C)C)C(=O)N[C@@H](Cc1c[nH]c2ccccc12)C(=O)NCCO)C(C)C)C(C)C)C(C)C [1214MeK] (For-VGA[dL]A[dV]V[dV]W[dL]W[dLys(Me3)]W[dLys(Me3)]W-NHCH2CH2OH) |  |  |  |  |  |  |  |  |  | KC50 ([1]; Table 8): >10 |
| CC(C)C[C@@H](NC(=O)[C@H](C)NC(=O)CNC(=O)[C@@H](NC=O)C(C)C)C(=O)N[C@@H](C)C(=O)N[C@@H](C(=O)N[C@H](C(=O)N[C@@H](C(=O)N[C@@H](Cc1c[nH]c2ccccc12)C(=O)N[C@H](CCCC[N+](C)(C)C)C(=O)N[C@@H](Cc1c[nH]c2ccccc12)C(=O)N[C@H](CCCC[N+](C)(C)C)C(=O)N[C@@H](Cc1c[nH]c2ccccc12)C(=O)N[C@H](CC(C)C)C(=O)N[C@@H](Cc1c[nH]c2ccccc12)C(=O)NCCO)C(C)C)C(C)C)C(C)C [10, 12M] (For-VGA[dL]A[dV]V[dV]W[dLys(Me3)]W[dLys(Me3)]W[dL]W-NHCH2CH2OH) |  | >10 | >10 |  | > 10 | >10 | >10 | 27 | [c] HC50 is the peptide concentration required to cause 50% of haemoglobin leakage from human red blood cells compared to the lysis of same amount cells by 1% TritonX-100. No haemoglogin leakage was observed in the cases of 10, 14M, 10, 12M or 10, 12, 14M at the concentration range tested. | EC50 ([5]; ATCC 19615): 1250 nM |
| CC(C)C[C@@H](NC(=O)[C@H](C)NC(=O)CNC(=O)[C@@H](NC=O)C(C)C)C(=O)N[C@@H](C)C(=O)N[C@@H](C(=O)N[C@H](C(=O)N[C@@H](C(=O)N[C@@H](Cc1c[nH]c2ccccc12)C(=O)N[C@H](CC(C)C)C(=O)N[C@@H](Cc1c[nH]c2ccccc12)C(=O)N[C@H](CC(C)C)C(=O)N[C@@H](Cc1c[nH]c2ccccc12)C(=O)N[C@H](CCCC[N+](C)(C)C)C(=O)N[C@@H](Cc1c[nH]c2ccccc12)C(=O)NCCO)C(C)C)C(C)C)C(C)C [14M] (For-VGA[dL]A[dV]V[dV]W[dL]W[dL]W[dLys(Me3)]W-NHCH2CH2OH) | 2.5 | 0.015 | 0.015 | 1.25 to 2.5 | 0.078 | 24 | 24 | 3.6 |  |  |
| CC(C)C[C@@H](NC(=O)[C@H](C)NC(=O)CNC(=O)[C@@H](NC=O)C(C)C)C(=O)N[C@@H](C)C(=O)N[C@@H](C(=O)N[C@H](C(=O)N[C@@H](C(=O)N[C@@H](Cc1c[nH]c2ccccc12)C(=O)N[C@H](CCCCN)C(=O)N[C@@H](Cc1c[nH]c2ccccc12)C(=O)N[C@H](CC(C)C)C(=O)N[C@@H](Cc1c[nH]c2ccccc12)C(=O)N[C@H](CC(C)C)C(=O)N[C@@H](Cc1c[nH]c2ccccc12)C(=O)NCCO)C(C)C)C(C)C)C(C)C (racemic) [gA-1, formyl-V-G-A-dL-A-dV-V-dV-W-dK-W-dL-W-dL-W-NHCH2CH2OH] |  |  |  |  |  |  |  |  |  | MICs B. Subtilius ([3]; ATCC 663): 5 µM; MIC relative to wild-type Gramicidin A ([3]; B. subtilis): equivalent to that of wild-type Gramicidin A; apparent dissociation constant (Kd) / binding [6]: apparent Kd values close to that of gA-WT; KC50 (50% K+ ion leakage relative to 1% TritonX-100) [1]: 0.01 µM; peptide concentration for 50% K+ ion leakage, fold greater than wild-type Gramicidin A [1]: ~100 fold; MICs S. Aureus ([4]; ATCC 6538): 2.5 µM; MIC relative to wild-type Gramicidin A ([4]; S. Aureus): equivalent to that of wild-type Gramicidin A; Sat. Conc, Lys series [7]: 10 µM; MICs S. Pyogenes ([5]; ATCC 19615): 0.16 µM; MIC relative to wild-type Gramicidin A ([5]; S. Pyogenes): equivalent to that of wild-type Gramicidin A; HC50 (50% haemoglobin leakage relative to 1% TritonX-100) ([2]; red cells of human): 5~10 μM; apparent dissociation constant (Kd) / binding [8]: apparent Kd values close to that of gA-WT; water solubility, fold higher than wild-type Gramicidin A (physchem): ~200 fold |
| CC(C)C[C@@H](NC(=O)[C@H](C)NC(=O)CNC(=O)[C@@H](NC=O)C(C)C)C(=O)N[C@@H](C)C(=O)N[C@@H](C(=O)N[C@H](C(=O)N[C@@H](C(=O)N[C@@H](Cc1c[nH]c2ccccc12)C(=O)N[C@H](CCCC[N+](C)(C)C)C(=O)N[C@@H](Cc1c[nH]c2ccccc12)C(=O)N[C@H](CC(C)C)C(=O)N[C@@H](Cc1c[nH]c2ccccc12)C(=O)N[C@H](CCCC[N+](C)(C)C)C(=O)N[C@@H](Cc1c[nH]c2ccccc12)C(=O)NCCO)C(C)C)C(C)C)C(C)C [10, 14M] (For-VGA[dL]A[dV]V[dV]W[dLys(Me3)]W[dL]W[dLys(Me3)]W-NHCH2CH2OH) | 2.5 | 20 | 20 | > 10 | 1.25 | >24 | >24 | 30 | [c] HC50 is the peptide concentration required to cause 50% of haemoglobin leakage from human red blood cells compared to the lysis of same amount cells by 1% TritonX-100. No haemoglogin leakage was observed in the cases of 10, 14M, 10, 12M or 10, 12, 14M at the concentration range tested. | HC50 printed in the S. Aureus MIC cell ([4]; ATCC 6538): 1.25 µM |
